One may read the Kd as the equilibrium constant for the complex coming apart. A high value points to lower affinity.

In paper PMC7527723, “Sex Steroids Induce Membrane Stress Responses and Virulence Properties in Pseudomonas aeruginosa” (mBio, 2020) one finds Kd data, which are given here for three molecules.

The target in experiment [1] is T1, Vfr (Pseudomonas aeruginosa, UniProt P55222).
T1 construct: purified protein
Description: biochemical. Type of experiment: binding.

The target of experiment [2] is T2, Pseudomonas aeruginosa MucB protein (Pseudomonas aeruginosa, UniProt P38108 22-316).
T2 sequence: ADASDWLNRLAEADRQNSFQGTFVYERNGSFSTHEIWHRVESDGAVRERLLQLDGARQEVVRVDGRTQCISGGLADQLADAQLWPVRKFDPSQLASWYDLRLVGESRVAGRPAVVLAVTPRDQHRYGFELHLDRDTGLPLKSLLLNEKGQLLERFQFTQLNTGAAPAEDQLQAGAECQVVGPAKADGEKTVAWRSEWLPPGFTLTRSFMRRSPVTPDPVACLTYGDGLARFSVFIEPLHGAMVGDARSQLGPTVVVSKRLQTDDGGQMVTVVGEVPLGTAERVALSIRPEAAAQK
Description: SPR; purified MucB subjected to MucA binding (control); which partner was immobilised, buffer and temperature are not told in the text shown. The note with it: both partners purified.

T1 sequence (P55222 whole entry): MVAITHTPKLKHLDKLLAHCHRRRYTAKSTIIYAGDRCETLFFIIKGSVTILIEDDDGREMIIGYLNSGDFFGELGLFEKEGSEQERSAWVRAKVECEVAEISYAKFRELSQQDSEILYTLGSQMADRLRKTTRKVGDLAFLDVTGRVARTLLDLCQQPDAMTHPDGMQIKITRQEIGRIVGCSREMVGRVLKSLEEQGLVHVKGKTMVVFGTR

Turning to `C[C@]12CC[C@@H]3c4ccc(O)cc4CC[C@H]3[C@@H]1C[C@@H](O)[C@@H]2O` [E3, estriol], the Kd in experiment [1] was in the range of 750 to 782 µM.

As for `C[C@]12CC[C@H]3[C@@H](CCC4=CC(=O)CC[C@@]43C)[C@@H]1CC[C@@H]2O` [T, testosterone], in experiment [1], the Kd is 1700 to 1800 µM.

B1: MucA (natural protein)
chain: YNQNDALPQMAQQGTTPQIALPQVKGPAVLAGYSEEQGAPQVITNSSSSDTRWHEQRLPIYLRQHVQQSAVSGTESALPYARAASLENR
notes: also called anti-sigma factor
B1 displayed a Kd in experiment [2] of 2.93 µM.
